Test results reported in ChEMBL document CHEMBL1201862, “PubChem BioAssay data set” (2004).
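In this assay, cells in 96-well plates receive the compound at five concentrations for 48 hours. Endpoints are linearly interpolated between the surrounding concentrations. GI50 is the concentration that inhibits growth by half.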 Calls of active or inactive are those of the source. Rule as the data show it: active = GI50 up to about 1.1 µM and inactive = higher.

Key:
Test in all cases: inhibition of tumour cell growth, NCI panel, 48 h
[1] = tested on: T47D
[2] = tested on: MOLT-4
[3] = tested on: HL-60
[4] = tested on: UACC-257
[5] = tested on: K562
[6] = tested on: RPMI-8226
[7] = tested on: IGROV-1
[8] = tested on: SN12C
[9] = tested on: RXF 393
[10] = tested on: OVCAR-8
[11] = tested on: ACHN
[12] = tested on: OVCAR-3
[13] = tested on: MDA-N
[14] = tested on: SNB-75
[15] = tested on: SK-MEL-28
[16] = tested on: EKVX
[17] = tested on: CAKI-1
[18] = tested on: HCT-15
[19] = tested on: BT-549

| Structure (SMILES) | GI50 [1] | GI50 [2] | GI50 [3] | GI50 [4] | GI50 [5] | GI50 [6] | GI50 [7] | GI50 [8] | GI50 [9] | GI50 [10] | GI50 [11] | GI50 [12] | GI50 [13] | GI50 [14] | GI50 [15] | GI50 [16] | GI50 [17] | GI50 [18] | GI50 [19] |
| --- | --- | --- | --- | --- | --- | --- | --- | --- | --- | --- | --- | --- | --- | --- | --- | --- | --- | --- | --- |
| CC1CCC2C(C)C(=O)OC2C2(C)C(=O)C=CC12 (stereo not given) | > 10 µM (inactive) | 6.59 µM (inactive) | 6.82 µM (inactive) | > 10 µM (inactive) | 4.57 µM (inactive) | 8.47 µM (inactive) | > 10 µM (inactive) | > 10 µM (inactive) | > 10 µM (inactive) | > 10 µM (inactive) | > 10 µM (inactive) | > 10 µM (inactive) | 6.14 µM (inactive) | > 10 µM (inactive) | > 10 µM (inactive) | > 10 µM (inactive) | > 10 µM (inactive) | > 10 µM |  |
| O=Nn1c2ccccc2c2ccccc21 | 66.5 µM (inactive) | 55.1 µM (inactive) | 59.3 µM (inactive) | 61.2 µM (inactive) | 58.9 µM (inactive) | 70.1 µM (inactive) | 85.3 µM (inactive) | > 100 µM (inactive) | 37.7 µM (inactive) | > 100 µM (inactive) | 56.2 µM (inactive) | 71.9 µM (inactive) |  | 75 µM (inactive) | > 100 µM (inactive) | 22.4 µM (inactive) | 44.4 µM (inactive) | 35.1 µM | 73.1 µM (inactive) |
| O=C1NC(Cc2ccc(O)cc2)C(=O)NC1Cc1ccc(O)cc1 (stereo not given) |  | > 100 µM (inactive) | > 100 µM (inactive) | > 100 µM (inactive) | > 100 µM (inactive) | > 100 µM (inactive) | > 100 µM (inactive) | 27.1 µM (inactive) | > 100 µM (inactive) | > 100 µM (inactive) | > 100 µM (inactive) | > 100 µM (inactive) | 30.1 µM (inactive) | 28.2 µM (inactive) | > 100 µM (inactive) | > 100 µM (inactive) | > 100 µM (inactive) | > 100 µM |  |
| O=C1C[C@@]23CCC4(CC2CCC[C@H]3O1)OCCO4 (stereo not given in full) | > 100 µM (inactive) | > 100 µM (inactive) | > 100 µM (inactive) | > 100 µM (inactive) | > 100 µM (inactive) | > 100 µM (inactive) | > 100 µM (inactive) | > 100 µM (inactive) | > 100 µM (inactive) | > 100 µM (inactive) | > 100 µM (inactive) | > 100 µM (inactive) | > 100 µM (inactive) |  | > 100 µM (inactive) | > 100 µM (inactive) |  | > 100 µM |  |
| COC(CN(C(=O)c1ccccc1)C1CCC2(SCCS2)c2[nH]c3ccccc3c21)OC (stereo not given) |  | 14.6 µM (inactive) | 16.9 µM (inactive) | 14.4 µM (inactive) | 14.9 µM (inactive) | 29.6 µM (inactive) | 40.6 µM (inactive) | 24.2 µM (inactive) | 20.3 µM (inactive) | 34.9 µM (inactive) | 27.8 µM (inactive) | 25.8 µM (inactive) | 12.9 µM (inactive) | 20.2 µM (inactive) | 61.2 µM (inactive) | 19.6 µM (inactive) | 21 µM (inactive) | 30.6 µM | 13.7 µM (inactive) |
| COc1ccc(C23OCC(Cc4cc(OC)c(OC)cc42)C3CO)cc1OC (stereo not given) | > 100 µM (inactive) | > 100 µM (inactive) | > 100 µM (inactive) |  | > 100 µM (inactive) | > 100 µM (inactive) |  |  | > 100 µM (inactive) |  | > 100 µM (inactive) | > 100 µM (inactive) |  | > 100 µM (inactive) | > 100 µM (inactive) | > 100 µM (inactive) | > 100 µM (inactive) | > 100 µM | > 100 µM (inactive) |
| CCOP(=O)(OCC)C(C)(CC)N/C(=N\C1=NC(C(F)(F)F)(C(F)(F)F)N=C(C(F)(F)F)O1)NC(NC(C)=O)(C(F)(F)F)C(F)(F)F (stereo not given) | 22.7 µM (inactive) | 13.2 µM (inactive) | 17.8 µM (inactive) | 31.8 µM (inactive) | 16.9 µM (inactive) | 24.2 µM (inactive) | 51.2 µM (inactive) | 34.1 µM (inactive) | 32.6 µM (inactive) | 36.6 µM (inactive) | 28.8 µM (inactive) | 40.3 µM (inactive) | 52.5 µM (inactive) | 2.3 µM (inactive) | > 100 µM (inactive) | 30.8 µM (inactive) | 42 µM (inactive) | 58.5 µM |  |
| C=CCN(C(=O)OC(C)(C)C)[C@H](C)C(=O)N[C@@H](C)C(=O)OC | > 100 µM (inactive) | > 100 µM (inactive) | 1.2 µM (inactive) |  | > 100 µM (inactive) | > 100 µM (inactive) | > 100 µM (inactive) | > 100 µM (inactive) |  | > 100 µM (inactive) | > 100 µM (inactive) | > 100 µM (inactive) | > 100 µM (inactive) |  | > 100 µM (inactive) | > 100 µM (inactive) | > 100 µM (inactive) | > 100 µM | > 100 µM (inactive) |
